From patent publication US8071552B2, “Peptides and peptidomimetics binding to CD23” (Universite Bordeaux 2, priority 2004, dated 2011)
Values joined by “and” are separate entries in the source; they are usually repeats but may differ in a detail not shown here. Equal values may be shown once. No end group written: not given here.

How the values were obtained:
[1] = test system: Monocyte-derived macrophages (CD23+); assay: Quantification of inflammatory response: nitrites (Greiss) from CD23-activated human macrophages, % inhibition relative to controls; assay type: cell-based; settings: human macrophages activated through CD23
Excerpt: Monocytes are isolated from normal human peripheral blood. Samples are collected from normal volunteers (20-50 years) by blood bank. They are all tested for the absence of HIV or HBV contaminations prior to use. Human normal mononuclear cells are obtained by Ficoll (Histopaque, Sigma) gradient separation of peripheral blood leukocytes. Monocytes are separated from lymphocytes by adherence to plastic dishes coated with fetal calf serum (FCS) as described (Vouldoukis I., et al., Proc. Natl. Acad. Sci. USA., 92: 7804-7808 1995). Following this procedure, >90% of cells express CD14 antigen and display cytochemical characteristics of monocytes. The cells are then incubated in DMEM supplemented with L-non-essential amino acids, sodium pyruvate, glutamine, penicillin, streptomycin, and 10% FCS (all from Gibco Laboratories, Grand Island, N.Y.). Above culture medium, chemicals, and FCS are tested for the absence of direct activation effect on human monocytes (CD23 expression and TNF-α production as activation markers). Following 24-48 hr adherence to culture flasks, these cells differentiate into macrophage-like cells displaying non-specific esterase activity that is inhibited by sodium fluoride.
Normal human donor-derived adherent cells have low if any surface CD23 expression and are designated in the present work as macrophages. CD23 expression is obtained following cell incubation with recombinant human interleukin 4 ([…]). […] Tissue-derived macrophages are mostly CD23^+.
Monocyte-derived macrophages (CD23^+) are activated through the cross-linking of their CD23 surface molecules by appropriate MoAb (20 μg/ml, clone 135, IgG1κ isotype) or by human IgE/anti-IgE complexes (IgE, Stallergene, Paris, France; goat anti-human-IgE, Nordic Immunology, Tilburg, The Netherlands). This activation pathway promotes the activation of iNOS mRNA transcription and the generation, by macrophages, of various inflammatory mediators such as nitric oxide (NO), TNF-α, reactive oxygen radicals, IL-1, and IL-6 (for, a review see: Dugas B, et al., Immunol Today, 16:574-580(1995)).
Following 1-3 day incubation at 37° C., 5% CO2 in humid atmosphere, macrophages are analyzed for their inflammatory response as following:
48-96 hr incubation: Collection of supernatants for the detection of cytokines and nitrites. Nitrites are quantified by Greiss method (Davies et al., Methods in Molecular Biology, 225:305-320, 2003) while IL-1, IL-6 and TNF-α: were quantified using commercial ELISA kits. The following antibodies and reagents were utilized:
Following quantitation of nitrites, a percentage inhibition relative to controls is calculated.

CD23+ cells [2] = assay: Inhibition of NO generation from activated macrophages (nitrites by Greiss reaction); assay type: cell-based, human; settings: peptide 4 hours, then IgE/anti-IgE; 3-5 day incubation
Procedure: (§1) For inflammatory functions, cells are pre-incubated with CD23-counterstructures during 4 hours prior to their incubation with CD23-MoAb or IgE/anti-IgE complexes. Cell supernatants are collected 2-4 days later and tested for their contents in various mediators.
Inflammatory responses of human macrophages almost correlated with in vivo generation of nitric oxide by these cells. We use this inflammatory mediator as a marker of cell activation.
(§2) CD23^+ cells are incubated in the presence or the absence of an inhibitory peptide (p30A) for 4 hours. CD23-MoAb or IgE/anti-IgE immune complexes are added. Following 3-5 day incubation, cell supernatants are harvested and the level of nitrites quantified by Greiss reaction (Davies et al., Methods in Molecular Biology, 225:305-320, 2003).

[3] = test system: macrophages derived from synovial fluid of patients with Rheumatoid Arthritis; assay: NO generation by macrophages derived from synovial fluid of patients with Rheumatoid Arthritis; assay type: cell-based, human; settings: RA synovial fluid macrophages
Procedure: as §2, with “[…])” for “(p30A)”, “2003). The effect of CD23-Peptide or a negative control on inflammatory functions of macrophages derived from synovial fluid of patients with Rheumatoid Arthritis is also investigated.” for “2003).”

[4] = test system: rat peritoneal macrophages and rat peripheral macrophages; assay: NO production from rat peritoneal and peripheral macrophages induced by IgE/DNP-BSA; assay type: cell-based; settings: peptide 4 hours, 3-5 day incubation
Procedure: NO production from rat peritoneal macrophages and rat peripheral macrophages is also determined. Peritoneal macrophages are highly CD23^+ and produce much higher quantities of pro-inflammatory mediators compared to peripheral blood-derived cells. CD23^+ cells are incubated in the presence or the absence of an inhibitory peptide (p30A) for 4 hours. IgE/DNP-BSA is added to induce CD23 cross-linking. L-NIL is a specific inhibitor of NOS-II. Pep− is a negative control peptide. Following 3-5 day incubation, cell supernatants are harvested and the level of nitrites quantified by Greiss reaction (Davies et al., Methods in Molecular Biology, 225:305-320, 2003).

CD23+ cells [5] = assay: Inhibition of TNF-α generation from activated macrophages (ELISA); assay type: cell-based, human
Procedure: as §1
In addition to NO, the effect of peptides on the production of TNF-α, a well-documented effector factor during inflammatory diseases, is also tested.
(§3) CD23^+ cells are incubated in the presence or the absence of an inhibitory peptide (p30A) for 4 hours. CD23-MoAb or IgE/anti-IgE immune complexes are added. Following 3-5 day incubation, cell supernatants are harvested and the level of TNF-α, quantified by specific ELISA.

[6] = test system: macrophages derived from peripheral blood or the synovial fluid of patients with Rheumatoid Arthritis; assay: TNF-α generation by macrophages from peripheral blood or synovial fluid of patients with Rheumatoid Arthritis; assay type: cell-based, human; settings: for level of TNF-α: p30A + CD23-Ab
Procedure: as §3, with “ELISA. The effect of CD23-Peptide or a negative control on inflammatory functions of macrophages derived from peripheral blood or the synovial fluid of patients with Rheumatoid Arthritis is also investigated.” for “ELISA.”

arthritic rats = assay: Treatment of arthritic rats (Mycobacterium butyricum-induced arthritis); assay type: in vivo, Lewis rats
Procedure: On day 0, 6-week old female Lewis rats weighing 145-155 g are injected subcutaneously with an arthritis-inducing emulsion. The rats are injected with 300 μl of the emulsion which contains: • 2 mg/rat heat-inactivated Mycobacterium butyricum diluted into; • 240 μl of Vaseline; • 30 μl of Tween-20; and • 30 μl of PBS.
The immunization step is repeated on day 7. The rats present arthritis signs by days 15 have to 21. Arthritic signs are assigned a clinical score (1-4). By day 40, the clinical scores increase from 1 to 3 or 4. Slower weight progression is also observed in immunized rats (FIG. 1a).
However, subcutaneous injection of 5 mg of p30A after the appearance of clinical signs results in complete remission of arthritic symptoms for 50% of the rats (FIG. 1b) as well as decreased clinical scores in 25% of the remaining rats.

[7] = test system: Adjuvant arthritis (AA) rats; assay: In vivo prevention and treatment of adjuvant arthritis in rats with p30A; parameters: species or system Lewis rats
Procedure: Each group of animals comprises eight rats. Female Lewis rats (Janvier, Le Genest St Isle, France) are housed under standard laboratory conditions and the animals are allowed free access to food and water. The temperature is kept at 22±2° C. and a 12-hour light/dark schedule is maintained. All animal procedures are performed in strict accordance with the guidelines issued by the European Economic Community “86/609”. Adjuvant arthritis (AA) is induced in six weeks-old animals by subcutaneous injection at the base of the tail of 300 μl (1.8 mg) of inactivated Mycobacterium butyricum (Difco Laboratories, Detroit, Mich.) diluted in emulsion of 8 ml Vaseline, 1 ml polysorbate 80, and 1 ml PBS (Phosphate Buffer Saline, BioWhittaker, Walkersville, Md.). Rats are boosted one week later with the same dose of antigen and observed for up to 50 days following immunization for clinical symptoms of arthritis. Evaluation of AA severity is performed by two independent observers with no knowledge of the treatment protocol. The severity of AA in each paw is quantified daily by a clinical score measurement from 0 to 2 as following: no signs of inflammation (0); swelling alone (>2 fold paw diameter) (0.5) or swelling/immobility (1.0) of one paw; swelling (1,5) or swelling/immobility (2,0) of two paws. Weight evolution of the animals is measured daily. Rats are injected with peptides or peptidomimetics (dissolved in 0.1% DMSO) I.C. every two days (day 0, 2, 4, 6, and 8) during the initiation of inflammation (preventive) or following the appearance of the inflammatory signs. As negative control, rats are injected with saline.
Clinical scores are determined as described above, and the cumulative clinical score is plotted against days post-immunization (FIGS. 2, 3, and 4).
In each of FIGS. 2, 3, and 4, arrows below the x-axis indicate the days on which IC injections were administered.

[8] = Peripheral Macrophages of RA patients
[9] = subcutaneous injection of 5 mg after the appearance of clinical signs

Ac N W BetaA CO2H [Compound 410]
% Inhibition (nitrites relative to controls; inhibition of iNOS production) [1]: 61%

Ac N W CO2H [Compound 411]
% Inhibition (nitrites relative to controls; inhibition of iNOS production) [1]: 84%

Ac n w CO2H [Compound 492]
% Inhibition (nitrites relative to controls; inhibition of iNOS production) [1]: 77%

Ac w n CO2H [Compound 491]
% Inhibition (nitrites relative to controls; inhibition of iNOS production) [1]: 94%

F H E N W beta A S [Compound 328]
% Inhibition (nitrites relative to controls; inhibition of iNOS production) [1]: 26%

FHENWPS [p30A]
level of nitrites [NO2-] (CD23+ cells [2]): 2.6 µM and 1.4 µM
level of nitrites [NO2-] ([3]; peptide + CD23-Ab): 7.9 µM and 9.5 µM
level of nitrites [NO2-] ([3]; peptide alone (no CD23-Ab)): 8.5 µM and 10.3 µM
IgE/DNP-BSA-induced NO production by macrophages [4]: inhibits IgE/DNP-BSA-induced NO production
% Inhibition of TNF-α (CD23+ cells [5]; p30A + CD23-Ab versus CD23-Ab): 47% and 54%
level of TNF-α (CD23+ cells [5]; peptide 4 hours, then CD23-Ab, 3-5 day incubation): 77 pg TNF-α/ml and 89 pg TNF-α/ml
% Inhibition of TNF-α [6, 8]: 73%
level of TNF-α [6, 8]: 40 pg TNF-α/ml
% Inhibition of TNF-α ([6]; SF Macrophages of RA patients): 41%
level of TNF-α ([6]; SF Macrophages of RA patients): 140 pg TNF-α/ml
remission of the arthritic condition (arthritic rats; intraperitoneal injection or intravenous treatment): do not induce remission
remission of arthritis (FIG. 1b) (arthritic rats; subcutaneous injection of 5 mg): results in remission
complete remission of arthritic symptoms (arthritic rats; [9]): 50 % of the rats
decreased clinical scores (arthritic rats; [9]): 25 % of the remaining rats
arthritis appearance (arthritic rats; unique injection (intraperitoneal or subcutaneous) at day 0): no affect on arthritis appearance
cumulative clinical score, preventive treatment (FIG. 2) ([7]; injections every two days from immunization, two dosage regimes, versus control rats): clearly superior clinical scores compared to control rats
weight gain (FIG. 4) ([7]; rats with arthritic symptoms, versus untreated arthritic rats): produced weight gain
cumulative clinical score, therapeutic treatment (FIG. 3) ([7]; treated from day of first symptoms, 3 dosage regimes, versus control rats): clear therapeutic effect

G[allyl-] N W G[allyl-] S [Compound 490]
% Inhibition (nitrites relative to controls; inhibition of iNOS production) [1]: 81%

H E N W S [Compound 437]
% Inhibition (nitrites relative to controls; inhibition of iNOS production) [1]: 56%

H E N W Sar S [Compound 398]
% Inhibition (nitrites relative to controls; inhibition of iNOS production) [1]: 74%

NH2 G[allyl-] N W G[allyl-] [Compound 489]
% Inhibition (nitrites relative to controls; inhibition of iNOS production) [1]: 62%
